Molecules are shown by their SMILES. Read-outs that look alike come from different tables or passages of the source.

Here are results for 29 compounds from US20240150321A1, “PYRAZOLYLSULFONAMIDE COMPOUNDS AND THEIR USE IN THERAPY” (HOTSPOT THERAPEUTICS, INC., priority 2022, published 2024).

One test deals with Avi-tagged FL MALT-1 (Homo sapiens (Human), UniProt Q9UDY8). Description: MALT-1 Fluorogenic Peptide Cleavage Assay (MALT1 inhibition assay). It is filed as biochemical. The note with it: Ac-LRSR-AMC peptide substrate, 30 min pre-incubation, 90 min reaction at room temperature. In outline:
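Cleavage of Ac-LRSR-AMC, read as fluorescence at 342/441 nm after 90 min at room temperature, with substrate working stocks of 50 μM (Km) or 280 μM (10×Km). Enzyme, Avi-tagged full-length MALT-1 (40 nM stock), was first pre-incubated 30 min with compound in citrate/HEPES pH 6.89 buffer with TCEP, EDTA, CHAPS and 2% DMSO; IC50 fitted from normalised % inhibition.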

For test [1], the system named is NF-kB reporter in Jurkat cells. Description: NF-kB reporter assay in Jurkat cells stimulated with aCD3/aCD28/PMA. It is filed as cell-based. The following applies: read-out: NF-kB Reporter Assay IC50. In outline:
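Luminescence (One-Glo) from the NF-kB reporter yielded IC50 values. Stimulation lasted 4 h at 37° C with aCD3, aCD28 and PMA (final 5, 5 and 0.03 […]), after 1 h compound pre-exposure of 25,000 Jurkat cells per well in serum-free RPMI.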
(In general: In a reporter assay the amount or activity of a reporter protein is the signal.)

Setting [2] is: Homo sapiens, Jurkat cells, 1 hr compound pre-incubation, aCD3/aCD28/PMA stimulation 4 hr, One-Glo readout.

Sequence of Avi-tagged FL MALT-1 (Q9UDY8 whole entry): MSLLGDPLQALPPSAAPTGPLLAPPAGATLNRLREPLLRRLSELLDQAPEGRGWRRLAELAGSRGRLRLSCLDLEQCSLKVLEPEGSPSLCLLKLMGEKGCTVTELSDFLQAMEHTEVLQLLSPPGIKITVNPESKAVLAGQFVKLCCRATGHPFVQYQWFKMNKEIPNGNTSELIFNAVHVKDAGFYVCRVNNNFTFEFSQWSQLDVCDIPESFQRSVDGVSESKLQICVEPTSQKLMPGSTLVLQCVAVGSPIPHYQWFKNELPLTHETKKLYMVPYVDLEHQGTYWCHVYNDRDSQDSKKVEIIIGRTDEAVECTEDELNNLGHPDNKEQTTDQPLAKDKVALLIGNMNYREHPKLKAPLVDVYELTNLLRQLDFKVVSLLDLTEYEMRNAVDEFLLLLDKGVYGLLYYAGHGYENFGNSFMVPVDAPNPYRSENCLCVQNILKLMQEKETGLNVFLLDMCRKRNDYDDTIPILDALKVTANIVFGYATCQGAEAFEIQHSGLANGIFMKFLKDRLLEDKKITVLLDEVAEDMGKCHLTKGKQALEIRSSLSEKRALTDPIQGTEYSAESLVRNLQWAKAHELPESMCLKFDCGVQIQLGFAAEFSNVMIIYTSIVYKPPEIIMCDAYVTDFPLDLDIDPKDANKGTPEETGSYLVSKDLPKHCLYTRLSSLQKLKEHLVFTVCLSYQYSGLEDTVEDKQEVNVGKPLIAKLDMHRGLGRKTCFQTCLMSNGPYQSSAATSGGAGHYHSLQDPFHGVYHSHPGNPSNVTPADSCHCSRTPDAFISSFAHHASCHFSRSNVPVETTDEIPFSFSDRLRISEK

As for `Cn1ncc2cccc(NS(=O)(=O)c3cnn(-c4cc(N5CC(C)(C)NC5=O)ccn4)c3)c21` [Compound I-285, 1-(4-(4,4-Dimethyl-2-Oxoimidazolidin-1-yl)Pyridin-2-yl)-N-(1-Methyl-1H-Indazol-7-yl)-1H-Pyrazole-4-Sulfonamide], the IC50 is over 2500 nM at Avi-tagged FL MALT-1 and 400 to 1000 nM in test [1] (setting [2]).
Taken in the same sequence, the figures for `CN1CC(O)(c2ccnc(-n3cc(S(=O)(=O)Nc4cccc5cnn(C)c45)cn3)c2)C1` [Compound I-344] were over 2500 nM and over 2500 nM.
Taken in the same sequence, the figures for `Cn1ncc2ccc(F)c(NS(=O)(=O)c3cnn(-c4cc(C(F)(F)F)ccn4)c3)c21` [Compound I-136, N-(6-fluoro-1-methyl-1H-indazol-7-yl)-1-(4-(trifluoromethyl)pyridin-2-yl)-1H-pyrazole-4-sulfonamide] were 400 to 1000 nM and 400 to 1000 nM.
For the compound `COc1ccc2cnn(C)c2c1NS(=O)(=O)c1cnn(-c2cc(N3CC[C@H](F)C3)ccn2)c1` [Compound I-422], the IC50 on Avi-tagged FL MALT-1 was over 2500 nM; in test [1] (setting [2]), under 400 nM.
For the compound `Cn1ncc2cccc(NS(=O)(=O)c3cnn(-c4cc(C(C)(C)CO)ccn4)c3)c21` [Compound I-307, 1-(4-(1-hydroxy-2-methylpropan-2-yl)pyridin-2-yl)-N-(1-methyl-1H-indazol-7-yl)-1H-pyrazole-4-sulfonamide], the IC50 is over 2500 nM on Avi-tagged FL MALT-1 and under 400 nM in test [1] (setting [2]).
For `Cn1ncc2cccc(NS(=O)(=O)c3cnn(-c4cc(N5CCC5)ccn4)c3)c21` [Compound I-248, 1-(4-(azetidin-1-yl)pyridin-2-yl)-N-(1-methyl-1H-indazol-7-yl)-1H-pyrazole-4-sulfonamide], the IC50 at Avi-tagged FL MALT-1 was over 2500 nM; in test [1] (Homo sapiens, Jurkat), under 400 nM.
`Cn1ncc2cccc(NS(=O)(=O)c3cnn(-c4cc(C5(C#N)COC5)ccn4)c3)c21` [Compound I-483]: the IC50 on Avi-tagged FL MALT-1 was over 2500 nM; in test [1] (setting [2]), under 400 nM.
Taken in the same sequence, the figures for `Cc1n[nH]c2cccc(NS(=O)(=O)c3cnn(-c4cc(C5(O)CCCC5)ccn4)c3)c12` [Compound I-246, 1-[4-(1-hydroxycyclopentyl)pyridin-2-yl]-N-(3-methyl-1H-indazol-4-yl)pyrazole-4-sulfonamide] were over 2500 nM and under 400 nM.
For `[2H]c1nn(C([2H])([2H])[2H])c2c(NS(=O)(=O)c3cnn(-c4cc(C(C)(F)F)ccn4)c3)cccc12` [Compound I-380, 1-(4-(1,1-difluoroethyl)pyridin-2-yl)-N-(1-(methyl-d3)-1H-indazol-7-yl-3-d)-1H-pyrazole-4-sulfonamide], in that order: 1000 to 2500 nM and under 400 nM.
For `Cn1ncc2cccc(NS(=O)(=O)c3cnn(-c4cc(N5CC(C)(C#N)C5)ccn4)c3)c21` [Compound I-450, 1-(4-(3-cyano-3-methylazetidin-1-yl)pyridin-2-yl)-N-(1-methyl-1H-indazol-7-yl)-1H-pyrazole-4-sulfonamide], in that order: over 2500 nM and under 400 nM.
As for `COc1ncc2cnn(C)c2c1NS(=O)(=O)c1cnn(-c2cc(N3CCC3)ccn2)c1` [Compound I-388, 1-[4-(azetidin-1-yl)pyridin-2-yl]-N-{6-methoxy-1-methylpyrazolo[4,3-c]pyridin-7-yl}pyrazole-4-sulfonamide], the IC50 on Avi-tagged FL MALT-1 is 400 to 1000 nM; in test [1] (setting [2]) it was under 400 nM.
Regarding `Cc1ccc2cnn(C)c2c1NS(=O)(=O)c1cnn(-c2ccnc(C(F)(F)F)c2)c1` [Compound I-59, N-(1,6-Dimethyl-1H-Indazol-7-yl)-1-(2-(Trifluoromethyl)Pyridin-4-yl)-1H-Pyrazole-4-Sulfonamide], the IC50 is at most 400 nM at Avi-tagged FL MALT-1 and 400 to 1000 nM in test [1] (setting [2]).
For the compound `COc1ncc2cnn(C)c2c1NS(=O)(=O)c1cnn(-c2cc(N3CCCCC3)ccn2)c1` [Compound I-387, N-(6-methoxy-1-methyl-1H-pyrazolo[4,3-c]pyridin-7-yl)-1-(4-(piperidin-1-yl)pyridin-2-yl)-1H-pyrazole-4-sulfonamide], the IC50 at Avi-tagged FL MALT-1 was over 2500 nM; in test [1] (setting [2]) it was under 400 nM.
Take `CCc1ccc2cnn(C)c2c1NS(=O)(=O)c1cnn(-c2ccnc(C)c2)c1` [Compound I-31, N-(6-Ethyl-1-Methyl-1H-Indazol-7-yl)-1-(2-Methylpyridin-4-yl)-1H-Pyrazole-4-Sulfonamide]: the IC50 is at most 400 nM on Avi-tagged FL MALT-1 and 400 to 1000 nM in test [1] (setting [2]).
In the case of `[2H]c1nn(C([2H])([2H])[2H])c2c(NS(=O)(=O)c3cnn(-c4cc(C(F)(F)F)ccn4)c3)cccc12` [Compound I-353, N-(1-(methyl-d3)-1H-indazol-7-yl-3-d)-1-(4-(trifluoromethyl)pyridin-2-yl)-1H-pyrazole-4-sulfonamide], the IC50 against Avi-tagged FL MALT-1 is at most 400 nM; in test [1] (setting [2]) it was under 400 nM.
Consider `COc1ccc2[nH]nc(C)c2c1NS(=O)(=O)c1cnn(-c2cc(C(F)(F)F)ccn2)c1` [Compound I-81, N-(5-Methoxy-3-Methyl-1H-Indazol-4-yl)-1-(4-(Trifluoromethyl)Pyridin-2-yl)-1H-Pyrazole-4-Sulfonamide], for which the IC50 at Avi-tagged FL MALT-1 was at most 400 nM; in test [1] (setting [2]), under 400 nM.
Consider `COc1ccc2cnn(C)c2c1NS(=O)(=O)c1cnn(-c2cc(C3CCO3)ccn2)c1` (stereo not shown) [Compound I-263, N-(6-methoxy-1-methyl-1H-indazol-7-yl)-1-(4-(oxetan-2-yl)pyridin-2-yl)-1H-pyrazole-4-sulfonamide], for which the IC50 against Avi-tagged FL MALT-1 was 400 to 1000 nM; in test [1] (setting [2]), under 400 nM.
Turning to `CCc1ccc2cnn(C)c2c1NS(=O)(=O)c1cnn(-c2cc(C(C)(C)O)ccn2)c1` [Compound I-274, N-(6-ethyl-1-methyl-1H-indazol-7-yl)-1-(4-(2-hydroxypropan-2-yl)pyridin-2-yl)-1H-pyrazole-4-sulfonamide], the values for the IC50 (against Avi-tagged FL MALT-1; in test [1] (setting [2])) were at most 400 nM and under 400 nM, respectively.
Take `Cn1ncc2cccc(NS(=O)(=O)c3cnn(-c4cc(N5CC(C(N)=O)C5)ccn4)c3)c21` [Compound I-471, 1-(2-(4-(N-(1-methyl-1H-indazol-7-yl)sulfamoyl)-1H-pyrazol-1-yl)pyridin-4-yl)azetidine-3-carboxamide]: the IC50 (against Avi-tagged FL MALT-1; in test [1] (setting [2])) was over 2500 nM throughout.
As to `Cn1ncc2cccc(NS(=O)(=O)c3cnn(-c4cc(N5CCCC5=O)ccn4)c3)c21` [Compound I-284], the IC50 was over 2500 nM at Avi-tagged FL MALT-1 and under 400 nM in test [1] (setting [2]).
For `COc1ncc2cnn(C)c2c1NS(=O)(=O)c1cnn(-c2cc(C(C)(F)F)ccn2)c1` [Compound I-141, 1-(4-(1,1-Difluoroethyl)Pyridin-2-yl)-N-(6-Methoxy-1-Methyl-1H-Pyrazolo[4,3-C]Pyridin-7-yl)-1H-Pyrazole-4-Sulfonamide], in that order: at most 400 nM and under 400 nM.
For `Cn1ncc2cccc(NS(=O)(=O)c3cnn(-c4cc(C5CC5)ccn4)c3)c21` [Compound I-76, 1-(4-Cyclopropylpyridin-2-yl)-N-(1-Methylindazol-7-yl)Pyrazole-4-Sulfonamide], in that order: 1000 to 2500 nM and under 400 nM.
For `Cc1ccc2[nH]nc(C)c2c1NS(=O)(=O)c1cnn(-c2cc(C(F)(F)F)ccn2)c1` [Compound I-67], in that order: at most 400 nM and under 400 nM.
Turning to `COc1ccc2cnn(C)c2c1NS(=O)(=O)c1cnn(-c2cc(C(C)(F)F)ccn2)c1` [Compound I-91, 1-(4-(1,1-Difluoroethyl)Pyridin-2-yl)-N-(6-Methoxy-1-Methyl-1H-Indazol-7-yl)-1H-Pyrazole-4-Sulfonamide], the IC50 is at most 400 nM against Avi-tagged FL MALT-1 and under 400 nM in test [1] (setting [2]).
For `Cc1ncn2cccc(NS(=O)(=O)c3cnn(-c4cc(C(F)(F)F)ccn4)c3)c12` [Compound I-95, N-(1-methylimidazo[1,5-a]pyridin-8-yl)-1-(4-(trifluoromethyl)pyridin-2-yl)-1H-pyrazole-4-sulfonamide], in that order: over 2500 nM and under 400 nM.
Consider `COc1ncc2cnn(C)c2c1NS(=O)(=O)c1cnn(-c2cc(N3CC[C@H](C)C3)ccn2)c1` [Compound I-419], for which the figures for the IC50 (on Avi-tagged FL MALT-1; in test [1] (setting [2])) were over 2500 nM and under 400 nM, respectively.
With `CCC(C)(OC)c1ccnc(-n2cc(S(=O)(=O)Nc3c(OC)ccc4cnn(C)c34)cn2)c1` (single isomer, unassigned) [Compound I-361, N-(6-methoxy-1-methyl-1H-indazol-7-yl)-1-(4-(2-methoxybutan-2-yl)pyridin-2-yl)-1H-pyrazole-4-sulfonamide], the IC50 on Avi-tagged FL MALT-1 is at most 400 nM; in test [1] (Jurkat cells, 1 hr compound pre-incubation, aCD3/aCD28/PMA stimulation 4 hr, One-Glo readout) it was under 400 nM.
Turning to `Cn1nc(Cl)c2cccc(NS(=O)(=O)c3cnn(-c4cc(C(F)(F)F)ccn4)c3)c21` [Compound I-111, N-(3-chloro-1-methyl-1H-indazol-7-yl)-1-(4-(trifluoromethyl)pyridin-2-yl)-1H-pyrazole-4-sulfonamide], the IC50 is over 2500 nM on Avi-tagged FL MALT-1 and under 400 nM in test [1] (setting [2]).
On to `Cn1ncc2cccc(NS(=O)(=O)c3cnn(-c4cc(N5CC6(CC6)C5)ccn4)c3)c21` [Compound I-368, 1-(4-{5-azaspiro[2.3]hexan-5-yl}pyridin-2-yl)-N-(1-methylindazol-7-yl)pyrazole-4-sulfonamide], for which the IC50 at Avi-tagged FL MALT-1 was over 2500 nM; in test [1] (setting [2]), under 400 nM.

As usually defined, the IC50 is the point on the concentration scale where inhibition reaches its midpoint.
